Measurements: patent publication US20050175599A1, “Process for producing substance” (Kyowa Hakko Kogyo Co., Ltd., priority 2001, published 2005)

System: transformant cell line 503LCA500D (derived from CHO/DG44) producing chimeric anti-CCR4 antibody
Assay: Fed-batch culture of antibody-producing cells with Q10-containing feed medium (Example 3)
Type: cell-based, Chinese hamster
Settings: for cumulative number of cells on the completion of culturing: Q10-free culture 3.94×10^7; for relative specific antibody production rate: Q10-free culture = 100%
Procedure: Lens culinaris agglutinin (hereinafter abbreviated as LCA) resistant cell line CHO-LCA, which is derived from Chinese hamster ovary cell line CHO/DG44, was prepared by the method described in WO 02/31140, and chimeric anti-CCR4 antibody expression vector pCANTEX 2160 (WO 01/64754) was transfected into this cell line. Then, amethotrexate (MTX)-resistant cell was selected for gene amplification to obtain transformant cell line 503LCA500D (FERM BP-8239) producing chimeric anti-CCR4 antibody. The following fed-batch culture was performed using this cell line 503LCA500D. 503LCA500D was deposited as FERM BP-8239 in International Patent Organism Depositary, National Institute of Advanced Industrial Science and Technology (AIST Tsukuba Central 6, 1-1-1 Higashi, Tsukuba, Ibaraki, Japan) as of Nov. 20, 2002.
The cells were inoculated in a 250-mL conical flask containing 50 mL of a serum-free medium. (EX-CELL 302 medium, manufactured by JRH Biosciences) to a cell density of 3×10^5 cells/mL, followed by spinner culture at 100 rpm at 37° C.
In Q10-added cultures, 0.5 mL or 1 mL of a health drink SANOMIT (manufactured by MSE Pharmazeutica GmbH) comprising Q10, water, glycerin, ethanol and lecithin was added to 20 mL of an animal-protein-material-free feed medium comprising amino acids (0.22 g/L L-alanine, 0.74 g/L L-arginine monohydrochloride, 0.22 g/LL-asparagine (anhydrous), 0.26 g/L L-aspartic acid, 0.8 g/L L-cystine dihydrochloride, 0.66 g/L L-glutamic acid, 7.34 g/L L-glutamine, 0.26 g/L glycine, 0.37 g/L L-histidine monohydrochloride dihydrate, 0.92 g/L L-isoleucine, 0.92 g/L L-leucine, 1.29 g/L L-lysine monohydrochloride, 0.26 g/L L-methionine, 0.58 g/L L-phenylalanine, 0.35 g/L L-proline, 0.37 g/L L-serine, 0.84 g/L L-threonine, 0.14 g/L L-tryptophan, 0.92 g/L L-tyrosine disodium dihydrate, and 0.83 g/LL-valine), vitamins (0.11 mg/L d-biotin, 0.035 g/L calcium D-pantothenate, 0.035 g/L choline chloride, 0.035 g/L folic acid, 0.063 g/L myo-inositol, 0.035 g/L niacin amide, 0.035 g/L pyridoxal hydrochloride, 0.0035 g/L riboflavin, 0.035 g/L thiamine hydrochloride, and 0.00011 mg/L cyanocobalamine), 0.0251 g/L ethanolamine, 0.314 g/L insulin, 8 g/L soybean hydrolysate HY-SOY (manufactured by Quest International), 0.05 g/L ethylenediaminetetraacetic acid ferric sodium salt (manufactured by Sigma-Aldrich Co.), and 2 mL cholesterol lipid concentrate (1,000×aqueous solution, manufactured by Invitrogen Corp.). The concentrations of Q10 in the feed media after addition of SANOMIT were 1,563 μmol/L and 3,125 μmol/L respectively. […]

## COC1=C(OC)C(=O)C(C/C=C(\C)CC/C=C(\C)CC/C=C(\C)CC/C=C(\C)CC/C=C(\C)CC/C=C(\C)CC/C=C(\C)CC/C=C(\C)CC/C=C(\C)CCC=C(C)C)=C(C)C1=O [Q10]
Q10-added culture 1, 121 to 393 μmol/L Q10 in the medium (SANOMIT in feed), fed-batch 13 days
  cumulative number of cells on the completion of culturing: 3.64×10^7 cells/mL×days
Q10-added culture 1, 121 to 393 μmol/L Q10 in the medium, fed-batch 13 days
  relative specific antibody production rate: 128.8%
Q10-added culture 2, 242 to 786 μmol/L Q10 in the medium (SANOMIT in feed), fed-batch 15 days
  cumulative number of cells on the completion of culturing: 2.00×10^7 cells/mL×days
Q10-added culture 2, 242 to 786 μmol/L Q10 in the medium, fed-batch 15 days
  relative specific antibody production rate: 149.1%
